Reference: patent US8835390B2, “Modulation of osteoclast differentiation” (Osteobuild Ltd., priority 2005, dated 2014)

Columns and labels:
[1] = tested on: osteoclast lineage cells (osteoclasts and their mononuclear precursors); assay: RANKL-induced osteoclast differentiation (osteoclast number by TRAP staining, cell size by surface area measurement); assay type: cell-based, mouse; conditions: for osteoclast lineage cells size: phloretin 50 μM added for the last day, mean ± SEM of at least 50 cells
Description: (§1) Bone marrow cells (BMMs) were prepared from the long bones of 7-9 week old BALB/c male mice. Primary BMMs were prepared by flushing mouse femurs and tibias with α-MEM. Cells were cultured in Petri dishes, in complete α-MEM, supplemented with 10% CMG14-12 culture supernatant, which served as a source of M-CSF. After 3 days of culture, plates were washed 3 to 4 times with PBS to remove non-adherent cells. Adherent cells were removed with trypsin-EDTA solution, centrifuged and resuspended in a fresh medium. Murine macrophage-like RAW264.7 cell line was maintained in RPMI 1640 medium supplemented with 10% fetal calf serum (FCS) in the presence of antibiotics (penicillin and streptomycin). Cells were cultured at 37° C. incubator in a humidified atmosphere with 5% CO2, and media were changed every other day. BMMs (7×10^3/well in α-MEM containing 10% FCS and supernatant from CMG14-12 [1:20]) or RAW264.7 cells (3×10^3/well in RPMI-1640 containing 10% FCS) were incubated in 96-well plates (0.2 ml/well). To induce cells to differentiate into osteoclasts, bacterially-produced recombinant RANKL was added at the time of plating. On day 3, medium was changed and on day 5, osteoclast formation was evaluated (see below). A commercial kit (Cat. No. 387-A, Sigma) was used according to the manufacturer instructions. TRAP-positive cells containing three or more nuclei were scored as osteoclasts. The surface area occupied by osteoclasts and their precursors was quantified using a computerized image analysis system (Olympus BX50, DP50, software: ImagePro Plus, Media Cybernetics). In the following assay the significance of the activity of AQP-9 to osteoclast differentiation was determined.

[2] = tested on: bone marrow cells (BMMs); assay: Methylene blue uptake; assay type: cell-based, mouse; conditions: FIG. 5
Description: as §1, with “To induce cells to differentiate into osteoclasts, bacterially-produced recombinant RANKL was added at the time of plating.” left out, “below).” for “below). A commercial kit (Cat. No. 387-A, Sigma) was used according to the manufacturer instructions. TRAP-positive cells containing three or more nuclei were scored as osteoclasts. The surface area occupied by osteoclasts and their precursors was quantified using a computerized image analysis system (Olympus BX50, DP50, software: ImagePro Plus, Media Cybernetics). In the following assay the significance of the activity of AQP-9 to osteoclast differentiation was determined.”
Cells were seeded as for the osteoclast differentiation assay (see above). Monolayers were fixed and methylene blue uptake was measured as described [Goldman, R., and Bar-Shavit, Z. (1979) J. Natl. Cancer Inst. […]

## O=C(CCc1ccc(O)cc1)c1c(O)cc(O)cc1O [Phloretin, 2′,4′,6′-Trihydroxy-3-(4-hydroxyphenyl)-propiophenone]
[1]; +RANKL for 5 days
  osteoclast lineage cells size: 23722 ± 4351 μm^2
[1]; +RANKL for 5 days, phloretin added for the last day, FIG. 4A-4D
  effect on osteoclast number: dramatic reduction
[1]; +RANKL for 5 days, phloretin added for the last day, FIG. 4A-4D, Table 3
  effect on osteoclast size: dramatic reduction
[1]; cells not treated with RANKL
  effect on number of the mononuclear precursors: did not exhibit a significant effect
  effect on size of the mononuclear precursors: did not exhibit a significant effect
[1]; −RANKL (mononuclear precursors)
  osteoclast lineage cells size: 267 ± 6 μm^2
[2]; RANKL-treated cells
  effect on methylene blue uptake: marked inhibition
[2]; mononuclear precursors (BMMs grown in the absence of RANKL)
  effect on methylene blue uptake: No effect
